Test system: chorioallantoic membrane of the preincubated Leghorn hen's egg
Experiment: HET-CAM (Hen's Egg Test ChorioAllantoic Membrane) test of ocular irritation potential
Details: for Classification of the concentrate tested: HET-CAM, active material concentration of 1%, pH 7, class by scale of the index I
From the text: The experimental protocol of this test is adapted from the Luepke publication (The Hen's Egg Test: “An Alternative Toxicity Test”, Brit. J. Dermato., 1986, 115. Suppl. 31, 133-135, Luepke N. P. & Kemper F. H. The HET-CAM Test: “An Alternative to the Draize Test”, Food Chem. Toxicol., 1986, 24, No. 6/7, 495-496), from the INVITTOX No. 47 protocol (1992, INVITTOX data bank, 34 Stoney Street, Nottingham, NG1 1NB, UK) and from Annex IV to the order published in the Official Journal of the French Republic of 26 Dec. 1996 relating to the official methods for the analysis of beauty products (NOR: FCEC9600217A).
This tests consists in assessing the irritation potential of a substance by reading the modifications observed after application of a solution of this substance to the richly vascularized chorioallantoic membrane of the preincubated Leghorn hen's egg.
The products were tested at an active material concentration of 1%. The solutions are prepared by diluting in deionized water at most 24 hours in advance.
The pH of the test solutions is adjusted to 7 with triethanolamine or lactic acid, if necessary.
On reception, the fertilized eggs are preincubated in an incubator for 10 days at 37.8° C.±0.5° C. with a degree of humidity in the incubator of 50% to 60%.
The shell of the eggs on which the tests are carried out is cut out around the air pocket and the chorioallantoic membrane is uncovered by carefully removing the shell membrane using tweezers.
0.3 cm^3 of the solution to be tested is deposited at the surface of the membrane. […]
By definition, if one of the phenomena has not appeared during these five minutes (300 seconds), it is recorded ti=301 seconds.
Each solution is tested on 4 to 6 eggs according to the repeatability of the reactions observed. The Het-Cam index I, representative of the test, is calculated for each egg tested in the following way: I=5×(301−t1)/300+7×(301−t2)/300+9×(301−t3)/300
The mean of the individual indices is subsequently calculated, along with the statistical uncertainty i: i=t·S/√n for a risk of 5% […]

Sodium lauryl ether (2.2 EO) sulfate [compound 1]
Classification of the concentrate tested: Irritating (9 ≦ . . . I < 12) | Classification of the concentrate tested (listed as comparative example 1): irritating | Het-Cam index (active material concentration of 1% in deionized water, pH adjusted to 7, 0.3 cm^3 on membrane, rinsed after 20 seconds, read over 5 minutes, mean of 4 to 6 eggs): 10.7

— patent US7902135B2, “Method of improving the ocular tolerance of foaming and/or detergent compositions for skin use” (Societe d'Exploitation de Produits pour les Industries …, priority 2006, dated 2011)
